We go through two compounds from patent US12303572B2 (Duke University, priority 2015, dated 2025).

Series [1] is described as follows: In vitro (phantom) quantitative T2 mapping at 7T, spin-spin relaxation contrast. How it is done:
Data are provided from quantitative T2 mapping at 7T using a RARE FSE protocol with at least 6 different echo times, at solute concentrations of 10 and 20 mM.

Series [2] can be described thus: Ascorbate T2 enhancement in rodent model of neocortical spreading depression. The following applies: slices 3 and 4 mm anterior to bregma, KCl-induced SD in right hemisphere. The series is classed as in vivo. An excerpt:
FIG. 10. […] The craniectomy site is 1 mm posterior to bregma, a skull landmark representing the posterior third of the underlying brain. The above two rows show T2 images and quantitative color lute T2 maps of signal change in rodent brain that are 3 and 4 mm anterior to bregma, that is, distant from the SD induction site. […] These marked cortical signal changes are consistent with the known hypermetabolic activity that occurs with SD, as also observed with ^18F-FDG PET, and with direct microdialysis and metabolomic determinations.
Spreading depression (SD) is an experimentally reproducible pathophysiological phenomenon of CNS tissues originally described 60 years ago by Loao. After a focal region of cortex reaches a critical threshold of ionic perturbation, a massive spreading wave of cellular depolarization may begin and spread through gray matter tissue, but remain confined to the gray matter zone in which it was induced, not crossing white matter pathways. […]
The craniectomy site is 1 mm posterior to bregma, a skull landmark representing the posterior third of the underlying brain. The above two rows show T2 images and quantitiative color lute T2 maps of signal change in rodent brain that are 3 and 4 mm anterior to bregma, that is, distant from the SD induction site. […]

The nature of series [3]: Perfusion and viability cardiac imaging with parenteral ascorbate at 7T. It counts as in vivo. The following applies: initial i.v. bolus, rat heart. As for the experimental part:
FIGS. 11A-11B. Perfusion and viability cardiac imaging with parenteral ascorbate. FIG. 11A depicts the two primary imaging planes, coronal and axial, for rat heart imaging at 7T.
Perfusion and viability cardiac imaging with parenteral ascorbate was assessed. FIG. 11A, depicts the two primary imaging planes, coronal and axial, for rat heart imaging at 7T. Retrospective gating with respiratory coupling was employed to collect images at 7T. The acquisition sequence is moderately T2-weighted and can be further optimized to enhance the contrast effect.

Series [4] in a line: T2 contrast changes in guinea pig brain at 7T after i.v. ascorbate formulations. The series is classed as in vivo, guinea pigs. As to conditions: 2 g/kg over 60 min slow infusion.
For series [5] the following is noted: oral, even at doses more than 100 times the recommended daily allowance; cited from earlier work.
For series [6] the following is noted: physiological pH of 7.4; cited from earlier work.

Turning to meglumine ascorbate, the “T2 contrast effect (T2 relaxation in ms) relative to meglumine or ascorbate alone” value in series [1] (10 mM, water, neutral pH, FIG. 3D) is “approximately 4 times”.
As for `O=C1O[C@H]([C@@H](O)CO)C(O)=C1O` [ascorbate, L-ascorbic acid], the “change in T2 relaxation” value in series [1] (10 mM ascorbate with physiological glucose (5 mM) or HCO3- (25 mM), pH 7.0) was 50%. Moreover, in series [1] (phantoms, FIG. 3C), the “pH at which the T2 effect is maximized” value is 7.0-7.4. Moreover, the “lowest concentration with statistically significant negative T2 contrast (signal loss)” value in series [1] (vs control (phosphate-buffered saline), conventional FSE acquisition) is 1 to 5 mM. The “effect of H2O2 on ascorbate T2 enhancement” value in series [1] (μM H2O2, phantoms, FIG. 3B) is given as “marked synergism”. In addition, the “T2 signal change in cerebral cortex” value in series [2] is given as “clear T2 asymmetry in the right cerebral cortex as compared to the left”. Also, the “T2 signal intensity in left ventricle” value in series [3] is given as “transient decrease in T2 signal intensity throughout the left ventricle”. Also, the “FSE T2 images before and after infusion” value in series [4] is given as “dramatic signal intensity differences throughout the brain parenchyma”. In addition, in series [5], the plasma concentration is at most 200 µM. The “fraction present as mono anion” value in series [6] is 99%.
